Measured values taken from ChEMBL document CHEMBL1201862, “PubChem BioAssay data set” (2004).
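Values below derive from 48-hour exposures of cells grown in 96-well plates, with endpoints linearly interpolated between the two concentrations bracketing the appropriate inhibition level. GI50 marks 50% less growth.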 The source made the active and inactive calls. Cut-off read from the data, not from the text of the source: active = GI50 up to about 1.1 µM and inactive = higher.

What was measured:
Assay in all cases: inhibition of tumour cell growth, NCI panel, 48 h
[1] = system: DMS-273
[2] = system: OVCAR-4
[3] = system: NCI-H460
[4] = system: RXF 631
[5] = system: TK-10
[6] = system: IGROV-1
[7] = system: NCI-H226
[8] = system: MDA-N
[9] = system: LXFL 529
[10] = system: DMS-114
[11] = system: HT-29
[12] = system: BT-549
[13] = system: NCI-H23
[14] = system: HCC 2998
[15] = system: UO-31
[16] = system: SF-539
[17] = system: OVCAR-8
[18] = system: HOP-92
[19] = system: A498
[20] = system: RPMI-8226
[21] = system: SK-MEL-2
[22] = system: U-251
[23] = system: MOLT-4
[24] = system: HCT-15
[25] = system: OVCAR-5
[26] = system: SK-MEL-5
[27] = system: HOP-62
[28] = system: Hs-578T
[29] = system: T47D
[30] = system: DU-145
[31] = system: SW-620
[32] = system: SF-295
[33] = system: MDA-MB-435
[34] = system: HCT-116
[35] = system: LOX IMVI
[36] = system: CCRF-CEM
[37] = system: UACC-257
[38] = system: UACC-62
[39] = system: M19-MEL
[40] = system: SNB-75
[41] = system: ACHN
[42] = system: Malme-3M
[43] = system: HOP-18
[44] = system: RXF 393
[45] = system: M14
[46] = system: MCF7
[47] = system: NCI/ADR-RES
[48] = system: KM-20L2
[49] = system: SNB-19
[50] = system: OVCAR-3
[51] = system: XF498
[52] = system: EKVX
[53] = system: SK-MEL-28
[54] = system: SK-OV-3
[55] = system: DLD-1
[56] = system: PC-3
[57] = system: MDA-MB-231
[58] = system: SN12C
[59] = system: CAKI-1
[60] = system: NCI-H522
[61] = system: A549
[62] = system: SNB-78
[63] = system: KM12
[64] = system: SR
[65] = system: 786-0
[66] = system: HL-60
[67] = system: COLO 205
[68] = system: K562
[69] = system: SF-268

SMILES: CCC(=O)OCOc1ccc(/C=C2\CCC(CN(C)C)C2=O)cc1 (stereo not drawn)
- GI50 [1]: 3.97 µM (inactive)
- GI50 [2]: 4.09 µM (inactive)
- GI50 [3]: 15.9 µM (inactive)
- GI50 [4]: 8.34 µM (inactive)
- GI50 [5]: 9.12 µM (inactive)
- GI50 [6]: 6.44 µM (inactive)
- GI50 [7]: 13.8 µM (inactive)
- GI50 [8]: 5.47 µM (inactive)
- GI50 [9]: 2.94 µM (inactive)
- GI50 [10]: 18.3 µM (inactive)
- GI50 [11]: 6.31 µM (inactive)
- GI50 [12]: 2.05 µM (inactive)
- GI50 [13]: 5.42 µM (inactive)
- GI50 [14]: 5.96 µM (inactive)
- GI50 [15]: 7.8 µM (inactive)
- GI50 [16]: 8.41 µM (inactive)
- GI50 [17]: 4.19 µM (inactive)
- GI50 [18]: 11 µM (inactive)
- GI50 [19]: 15.9 µM (inactive)
- GI50 [20]: 2.43 µM (inactive)
- GI50 [21]: 11 µM (inactive)
- GI50 [22]: 11.1 µM (inactive)
- GI50 [23]: 2.51 µM (inactive)
- GI50 [24]: 3.13 µM
- GI50 [25]: 16.8 µM (inactive)
- GI50 [26]: 11.7 µM (inactive)
- GI50 [27]: 15.2 µM (inactive)
- GI50 [28]: 6.27 µM (inactive)
- GI50 [29]: 3.52 µM (inactive)
- GI50 [30]: 10.8 µM (inactive)
- GI50 [31]: 2.32 µM (inactive)
- GI50 [32]: 8.85 µM (inactive)
- GI50 [33]: 3.34 µM (inactive)
- GI50 [34]: 2.74 µM (inactive)
- GI50 [35]: 1.94 µM (inactive)
- GI50 [36]: 1.61 µM (inactive)
- GI50 [37]: 3.39 µM (inactive)
- GI50 [38]: 4.1 µM (inactive)
- GI50 [39]: 4.47 µM (inactive)
- GI50 [40]: 12.8 µM (inactive)
- GI50 [41]: 7.73 µM (inactive)
- GI50 [42]: 3.96 µM (inactive)
- GI50 [43]: 15.4 µM (inactive)
- GI50 [44]: 3.44 µM (inactive)
- GI50 [45]: 3.42 µM (inactive)
- GI50 [46]: 3.03 µM (inactive)
- GI50 [47]: 2.96 µM (inactive)
- GI50 [48]: 13.1 µM (inactive)
- GI50 [49]: 16.7 µM (inactive)
- GI50 [50]: 3.7 µM (inactive)
- GI50 [51]: 2.14 µM (inactive)
- GI50 [52]: 14 µM (inactive)
- GI50 [53]: 4.29 µM (inactive)
- GI50 [54]: 15.7 µM (inactive)
- GI50 [55]: 2.19 µM (inactive)
- GI50 [56]: 14.2 µM (inactive)
- GI50 [57]: 3.67 µM (inactive)
- GI50 [58]: 2.72 µM (inactive)
- GI50 [59]: 4.67 µM (inactive)
- GI50 [60]: 1.93 µM (inactive)
- GI50 [61]: 18.3 µM (inactive)
- GI50 [62]: 9.68 µM (inactive)
- GI50 [63]: 3.9 µM (inactive)
- GI50 [64]: 2.15 µM (inactive)
- GI50 [65]: 2.45 µM (inactive)
- GI50 [66]: 1.36 µM (inactive)
- GI50 [67]: 3.78 µM (inactive)
- GI50 [68]: 1.85 µM (inactive)
- GI50 [69]: 8.59 µM (inactive)

SMILES: Cc1ccc2[nH]c(Sc3c([N+](=O)[O-])ncn3C)nc2c1
- GI50 [1]: 12.2 µM (inactive)
- GI50 [2]: 18.1 µM (inactive)
- GI50 [3]: 35.2 µM (inactive)
- GI50 [4]: 17.2 µM (inactive)
- GI50 [5]: 44.9 µM (inactive)
- GI50 [6]: 22.1 µM (inactive)
- GI50 [7]: 12.8 µM (inactive)
- GI50 [9]: > 10 µM (inactive)
- GI50 [10]: 14.3 µM (inactive)
- GI50 [11]: 29.6 µM (inactive)
- GI50 [13]: 18.6 µM (inactive)
- GI50 [14]: 15.7 µM (inactive)
- GI50 [15]: 27.5 µM (inactive)
- GI50 [16]: 18.1 µM (inactive)
- GI50 [17]: 14.4 µM (inactive)
- GI50 [18]: 16.1 µM (inactive)
- GI50 [19]: 25.1 µM (inactive)
- GI50 [20]: 25.1 µM (inactive)
- GI50 [22]: 22.9 µM (inactive)
- GI50 [23]: 13.9 µM (inactive)
- GI50 [24]: 13.8 µM
- GI50 [25]: 46.8 µM (inactive)
- GI50 [26]: 17.1 µM (inactive)
- GI50 [27]: > 100 µM (inactive)
- GI50 [31]: 25.3 µM (inactive)
- GI50 [32]: > 100 µM (inactive)
- GI50 [34]: 21.1 µM (inactive)
- GI50 [35]: 34.3 µM (inactive)
- GI50 [37]: 12.6 µM (inactive)
- GI50 [38]: 19 µM (inactive)
- GI50 [39]: 18.5 µM (inactive)
- GI50 [40]: 25.3 µM (inactive)
- GI50 [41]: 33 µM (inactive)
- GI50 [42]: 15.8 µM (inactive)
- GI50 [43]: 17.5 µM (inactive)
- GI50 [44]: 16.1 µM (inactive)
- GI50 [45]: 17.6 µM (inactive)
- GI50 [48]: 25.6 µM (inactive)
- GI50 [49]: > 100 µM (inactive)
- GI50 [50]: 17.5 µM (inactive)
- GI50 [51]: 0.586 µM (active)
- GI50 [52]: 26.1 µM (inactive)
- GI50 [53]: 37.4 µM (inactive)
- GI50 [54]: 30 µM (inactive)
- GI50 [55]: 20.4 µM (inactive)
- GI50 [58]: 18 µM (inactive)
- GI50 [59]: 11.9 µM (inactive)
- GI50 [61]: 30.5 µM (inactive)
- GI50 [62]: 23.2 µM (inactive)
- GI50 [63]: 67 µM (inactive)
- GI50 [64]: 12.3 µM (inactive)
- GI50 [65]: 27.8 µM (inactive)
- GI50 [67]: 13.3 µM (inactive)
- GI50 [69]: 31.5 µM (inactive)
